Experimental data as given in patent publication US20240148714A1, “Triple Negative Breast Cancer Treatment Method” (Exelixis, Inc., priority 2016, published 2024).

Assay: Phase II study in metastatic TNBC: toxicity / adverse events
Assay type: in vivo, human
Protocol: Experimental design: In this single-arm, two-stage phase 2 study, patients with metastatic TNBC with measurable disease by RECIST and up to 3 lines of prior chemotherapy for metastatic disease received cabozantinib 60 mg daily on a 21-day cycle. Patients were restaged 6 weeks following treatment initiation and every 9 weeks thereafter. The primary endpoint was objective response rate (ORR). Predefined secondary endpoints included progression free survival (PFS) and toxicity. Here, we examined cellular biomarkers using flow cytometry in serial blood samples collected at days 0 (baseline/pre-treatment), 8, 22, 43, and 64 of cabozantinib treatment. Mixed effect models were used to evaluate the changes of biomarker levels over time from baseline to day 64. Wilcoxon signed rank test were used to evaluate whether the change of biomarker levels from baseline to day 8 were different by clinical benefit. Adjusted p-values controlling false discovery rate were used to adjust for multiple comparisons.
Study Design and Treatment: As indicated, this was a single-arm, two-stage phase II study assessing the efficacy of cabozantinib monotherapy in patients with mTNBC. Treatment consisted of oral dosing of cabozantinib at 60 mg daily over a 21-day cycle. Patients underwent radiographic restaging at 6 weeks and every 9 weeks thereafter. Patients with complete or partial RECIST responses continued to receive study treatment, whereas those with progressive disease were taken off study. Dose reductions for toxicity occurred if patients experienced grade 3 or 4 neutropenia or thrombocytopenia, or nonhematologic adverse events. From the starting dose of 60 mg daily, doses were reduced as needed to 40 and 20 mg daily. For the purposes of determining the effect of cabozantinib treatment on pain and analgesic medication use, pain was assessed by a participant-reported questionnaire, and daily analgesic medication usage was recorded. These were completed at baseline and during week 3, 6, and every 6 weeks thereafter until the date of the participant's last follow-up visit.
The primary endpoint was the activity of cabozantinib, as defined by objective response rate (ORR) in patients with mTNBC. Predefined secondary endpoints included progression-free survival (PFS), toxicity, and pain. Correlative studies included analysis of MET and phospho-MET expression in archival tumor tissue, and molecular and cellular biomarkers of cabozantinib. Cellular biomarkers were examined using flow cytometry in serial blood samples collected at days 0 (baseline/pre-treatment), 8, 22, 43, and 64 of cabozantinib treatment. Mixed effect models were used to evaluate the changes of biomarker levels over time from baseline to day 64. Wilcoxon signed rank test were used to evaluate whether the change of biomarker levels from baseline to day 8 were different by clinical benefit. Adjusted p-values controlling false discovery rate were used to adjust for multiple comparisons.

**Q.** Which results are given for `COc1cc2nccc(Oc3ccc(NC(=O)C4(C(=O)Nc5ccc(F)cc5)CC4)cc3)c2cc1OC` [cabozantinib]?
**A.** number of grade 3 adverse events (35 patients): 15; Anorexia (Maximum grade Mild): 10; Bone pain (Maximum grade Mild): 0; Diarrhea (Maximum grade Mild): 8; Dysgeusia (Maximum grade Mild): 5; Elavated lipase (Maximum grade Mild): 0; Elevated alanine aminotransferase (Maximum grade Mild): 6; Elevated aspartate aminotransferase (Maximum grade Mild): 7; Fatigue (Maximum grade Mild): 18; Hypertension (Maximum grade Mild): 6; Hypophosphatemia (Maximum grade Mild): 0; Infection (Maximum grade Mild): 0; Nausea (Maximum grade Mild): 10; Oral mucositis (Maximum grade Mild): 11; PPE (Maximum grade Mild): 3; Prolonged activated partial thromboplastin time (Maximum grade Mild): 0; Thromboembolic event (Maximum grade Mild): 0; Wound dehiscence (Maximum grade Mild): 0; Anorexia (Maximum grade Moderate): 2; Bone pain (Maximum grade Moderate): 0; Diarrhea (Maximum grade Moderate): 6; Dysgeusia (Maximum grade Moderate): 2; Elavated lipase (Maximum grade Moderate): 0; Elevated alanine aminotransferase (Maximum grade Moderate): 0; Elevated aspartate aminotransferase (Maximum grade Moderate): 3; Fatigue (Maximum grade Moderate): 9; Hypertension (Maximum grade Moderate): 4; Hypophosphatemia (Maximum grade Moderate): 0; Infection (Maximum grade Moderate): 0; Nausea (Maximum grade Moderate): 0; Oral mucositis (Maximum grade Moderate): 2; PPE (Maximum grade Moderate): 9; Prolonged activated partial thromboplastin time (Maximum grade Moderate): 0; Thromboembolic event (Maximum grade Moderate): 0; Wound dehiscence (Maximum grade Moderate): 0; Anorexia (Maximum grade Severe): 0; Bone pain (Maximum grade Severe): 1; Diarrhea (Maximum grade Severe): 0; Dysgeusia (Maximum grade Severe): 0; Elavated lipase (Maximum grade Severe): 3; Elevated alanine aminotransferase (Maximum grade Severe): 1; Elevated aspartate aminotransferase (Maximum grade Severe): 2; Fatigue (Maximum grade Severe): 0; Hypertension (Maximum grade Severe): 2; Hypophosphatemia (Maximum grade Severe): 1; Infection (Maximum grade Severe): 1; Nausea (Maximum grade Severe): 0; Oral mucositis (Maximum grade Severe): 0; PPE (Maximum grade Severe): 1; Prolonged activated partial thromboplastin time (Maximum grade Severe): 1; Thromboembolic event (Maximum grade Severe): 1; Wound dehiscence (Maximum grade Severe): 1; Anorexia (all grades): 12 (34) Total (% of 35); Bone pain (all grades): 1 (3) Total (% of 35); Diarrhea (all grades): 14 (40) Total (% of 35); Dysgeusia (all grades): 7 (20) Total (% of 35); Elavated lipase (all grades): 3 (9) Total (% of 35); Elevated alanine aminotransferase (all grades): 7 (20) Total (% of 35); Elevated aspartate aminotransferase (all grades): 12 (34) Total (% of 35); Fatigue (all grades): 27 (77) Total (% of 35); Hypertension (all grades): 12 (34) Total (% of 35); Hypophosphatemia (all grades): 1 (3) Total (% of 35); Infection (all grades): 1 (3) Total (% of 35); Nausea (all grades): 10 (29) Total (% of 35); Oral mucositis (all grades): 13 (37) Total (% of 35); PPE (all grades): 13 (37) Total (% of 35); Prolonged activated partial thromboplastin time (all grades): 1 (3) Total (% of 35); Thromboembolic event (all grades): 1 (3) Total (% of 35); Wound dehiscence (all grades): 1 (3) Total (% of 35); Diarrhea (all grades, possibly related): 40%; Fatigue (all grades, possibly related): 77%; Oral mucositis (all grades, possibly related): 37%; palmar-plantar erythrodysesthesia (PPE) (all grades, possibly related): 37%; patients requiring dose reduction (from 60 mg daily): 34%; dose reduction due to PPE (in vivo): 4 patients; dose reduction due to other toxicities (in vivo): 8 patients; grade 3 elevated aspartate aminotransferase (in vivo): 2 n; grade 3 elevated lipase (in vivo): 3 n; grade 3 hypertension (in vivo): 2 n; grade 4 toxicities (in vivo): no grade 4 toxicities; patients off treatment due to toxicity (in vivo): 9%; patients who omitted at least one dose due to toxicity (in vivo): 26 patients; tolerability (in vivo): well tolerated
